Source: article PMC3329467, “Stereoselective Regulations of P-Glycoprotein by Ginsenoside Rh2 Epimers and the Potential Mechanisms From the View of Pharmacokinetics” (PLoS ONE, 2012)
Read-outs that look alike come from different tables or passages of the source. Values belong to the molecule of their own block, whether it stands above or below them.

Key:
[1] = test system: Ca^2+, K^+ and Na^+ channel; design: method as in PMID 15650337, PMID 15979567; conditions: dose- and voltage-dependent; cited from earlier work
human fecal microflora = test system: human fecal microflora; design: method as in PMID 11824558; conditions: cited from earlier work
[2] = design: method as in PMID 19524010; conditions: 1–9 mg/kg i.g., rats; cited from earlier work
P-gp [3] = test: Effects of Rh2 epimers on oral pharmacokinetics of P-gp substrate digoxin in rats; type: in vivo, rat
Description: The rats were divided into five groups with five each. One group of rats received i.g. single dose of the vehicle (0.5% CMC-Na) serving as the control. Two groups were i.g. administered 20(S)-Rh2 suspended in 0.5% CMC-Na at the doses of 5 mg/kg and 50 mg/kg respectively, while another two groups i.g. administration of 20(R)-Rh2 suspended in 0.5% CMC-Na at the doses of 5 mg/kg and 50 mg/kg respectively. Two hours later, P-gp substrate, digoxin (0.25 mg/kg) was given to the rats by i.g. administration. Blood samples were collected before the P-gp substrate dosing and at 0.08, 0.17, 0.25, 0.5, 1, 2, 3, 6, 8 h post-digoxin-dosing. Plasma was obtained by centrifugation at 5000 g for 10 min and stored at −20°C before analysis. Plasma concentrations of digoxin were determined as described previously.
(§1) The pharmacokinetic parameters of digoxin, 20(S)-Rh2 and 20(R)-Rh2 in rats were obtained by noncompartmental analysis using DAS (Drug and Statistics, version 2.1, Chinese Pharmacological Society). The area under the plasma concentration-time curve (AUC) was calculated using the trapezoidal method.

osteoclasts = conditions: cited from earlier work
[4] = Oral pharmacokinetics of 20(S)-Rh2 and 20(R)-Rh2 in rats (stereoselective LC-MS); type: in vivo, rat; conditions: for Cmax / Tmax / MRT last: Sprague-Dawley, rat, po; for MRT last: read-out: MRT 0-t (converted); for Inverted proportion (chiral inversion): after oral administration of a single configuration of Rh2, rats; for Detection in plasma: after oral administration of 20(R)-Rh2, rats
Description: To investigate the differences of pharmacokinetic characteristics between 20(S)-Rh2 and 20(R)-Rh2, rats were divided into 2 groups with five rats for each group. One received a single dose of 20(S)-Rh2 intragastrically at 25 mg/kg suspended in 0.5% CMC-Na, while the other received 20(R)-Rh2 at the same dosage. Blood samples were collected at 0, 30, 60, 180, 240, 300, 360, 480, 660 and 840 min after oral administration into heparinized tubes. Plasma was obtained by centrifugation at 5000 g for 10 min and stored at −20°C before analysis.
The 20(S)-Rh2, 20(R)-Rh2 and the deglycosylation metabolites 20(S)-Ppd and 20(R)-Ppd were quantified simultaneously by reversed-phase LC-MS. An aliquot of 100 µl sample spiked with digitoxin as internal standard was extracted by 1 ml ethylacetate. The analysis was performed on Finnigan LC-MS system (Thermo Electron, San Jose, CA, USA) with a Lux Cellulose-1 Chiral Column (250×4.6 mm, 5 µm, Phenomenex, USA). The column and autosampler tray temperatures were 40 and 4°C, respectively. The mobile phase was consisted of methanol, acetonitrile and 0.1% formic acid with gradient elution (Table 5). Mass spectrometer was operated in positive ESI mode. MS parameters were as follows: spray voltage, 5.0 kV; sheath gas/auxiliary gas, nitrogen; sheath gas pressure, 35×10^5 Pa; auxiliary gas pressure, 20×10^5 Pa; ion transfer capillary temperature, 300°C. Quantification was performed using SIM mode with [M+Na]^+ peak: m/z 645.4 for Rh2; m/z 483.3 for Ppd; m/z 787.5 for digitoxin (internal standard).
as §1

P-gp [5] = target: T1, P-gp (Homo sapiens, UniProt P08183); test: P-gp mediated bidirectional transport of digoxin across Caco-2 cell monolayers; type: cell-based
T1 construct: host or cells: Caco-2 cell monolayers
Description: The Caco-2 cell transport model was established as described previously. Then, Hank's balanced salt solution (HBSS) containing 20(S)-Rh2, 20(R)-Rh2, 20(S)-Ppd, 20(R)-Ppd or 0.1% DMSO (control) was loaded into both apical and basolateral chambers. After incubation at 37°C for 1 h, 5 µM digoxin was added to either apical or basolateral side to evaluate the transport in absorptive and secretory direction respectively. After incubation for just another 2 h, samples were taken from the receiving chamber for analysis. Verapamil (10 µM) was used as a positive control. Digoxin was determined by LC-MS/MS. All experiments were conducted in triplicate.
For the transport assay, the apparent permeability coefficient (Papp) and efflux ratio (ER) were calculated as reported previously.

osteoclastgenesis = conditions: cited from earlier work
P-glycoprotein (P-gp) = conditions: in vitro and in vivo; cited from earlier work
[6] = test system: androgen-dependent and –independent prostate cancer cells; design: method as in PMID 20554003; conditions: cited from earlier work
[7] = in vivo, 25 mg/kg, after oral administration of the same epimer, rats
[8] = in vivo, 25 mg/kg, plasma analyte after i.g. 20(R)-Rh2 25 mg/kg, rats
[9] = in vivo, 25 mg/kg, plasma analyte after i.g. 20(S)-Rh2 25 mg/kg, rats
[10] = plasma analyte after i.g. 20(R)-Rh2 25 mg/kg, rats
[11] = plasma analyte after i.g. 20(S)-Rh2 25 mg/kg, rats
[12] = 1 h preincubation, 5 µM digoxin 2 h, concentration series

T1 sequence (P08183 whole entry): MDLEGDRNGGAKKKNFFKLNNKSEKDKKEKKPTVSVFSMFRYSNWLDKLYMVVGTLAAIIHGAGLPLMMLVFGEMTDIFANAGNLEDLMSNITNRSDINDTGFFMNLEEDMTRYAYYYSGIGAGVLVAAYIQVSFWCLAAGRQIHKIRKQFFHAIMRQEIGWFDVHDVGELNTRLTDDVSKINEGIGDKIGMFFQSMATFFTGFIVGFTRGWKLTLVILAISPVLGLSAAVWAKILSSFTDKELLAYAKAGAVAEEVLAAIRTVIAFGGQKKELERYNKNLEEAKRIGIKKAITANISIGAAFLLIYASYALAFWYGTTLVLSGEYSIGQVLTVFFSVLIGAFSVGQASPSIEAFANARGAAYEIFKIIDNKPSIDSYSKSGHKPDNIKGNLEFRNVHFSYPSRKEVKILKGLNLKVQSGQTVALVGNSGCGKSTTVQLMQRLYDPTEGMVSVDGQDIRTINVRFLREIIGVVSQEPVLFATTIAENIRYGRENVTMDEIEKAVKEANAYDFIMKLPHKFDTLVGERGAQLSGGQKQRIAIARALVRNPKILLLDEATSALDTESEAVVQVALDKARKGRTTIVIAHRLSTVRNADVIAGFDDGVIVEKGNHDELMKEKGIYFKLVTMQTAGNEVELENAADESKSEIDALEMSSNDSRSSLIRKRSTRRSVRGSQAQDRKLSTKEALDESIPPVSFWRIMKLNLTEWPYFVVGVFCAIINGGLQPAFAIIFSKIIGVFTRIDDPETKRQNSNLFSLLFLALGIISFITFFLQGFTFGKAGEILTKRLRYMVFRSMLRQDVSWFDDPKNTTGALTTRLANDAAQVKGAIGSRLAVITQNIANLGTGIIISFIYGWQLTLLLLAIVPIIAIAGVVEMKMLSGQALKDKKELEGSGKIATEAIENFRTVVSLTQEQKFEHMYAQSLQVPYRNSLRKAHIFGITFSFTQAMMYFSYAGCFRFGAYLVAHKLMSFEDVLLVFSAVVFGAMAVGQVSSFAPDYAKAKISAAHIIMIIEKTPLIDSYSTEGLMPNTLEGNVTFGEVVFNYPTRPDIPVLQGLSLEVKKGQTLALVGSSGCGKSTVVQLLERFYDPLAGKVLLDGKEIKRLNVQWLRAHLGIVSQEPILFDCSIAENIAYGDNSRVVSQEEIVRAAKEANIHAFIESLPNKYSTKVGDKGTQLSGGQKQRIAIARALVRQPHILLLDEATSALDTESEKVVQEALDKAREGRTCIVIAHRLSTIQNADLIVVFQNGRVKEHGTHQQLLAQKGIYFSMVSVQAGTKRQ

SMILES: CC(C)=CCC[C@](C)(O)[C@H]1CC[C@]2(C)[C@@H]1[C@H](O)C[C@@H]1[C@@]3(C)CC[C@H](O[C@@H]4O[C@H](CO)[C@@H](O)[C@H](O)[C@H]4O[C@@H]4O[C@H](CO)[C@@H](O)[C@H](O)[C@H]4O)C(C)(C)[C@@H]3CC[C@]12C [20(S)-ginsenoside Rg3]
- Inhibition of Ca^2+, K^+ and Na^+ channel currents [1]: inhibited
- Amount transformed to 20(S)-ginsenoside Rh2, higher than 20(R)-Rg3 to 20(R)-Rh2 (human fecal microflora): 19 fold

SMILES: CC(C)=CCC[C@](C)(O)[C@H]1CC[C@]2(C)[C@@H]1[C@H](O)C[C@@H]1[C@@]3(C)CC[C@H](O[C@@H]4O[C@H](CO)[C@@H](O)[C@H](O)[C@H]4O)C(C)(C)[C@@H]3CC[C@]12C [Rh2, ginsenoside Rh2]
- Absolute bioavailability [2]: 4.0–6.4%

SMILES: CC(C)=CCC[C@@](C)(O)[C@H]1CC[C@]2(C)[C@@H]1[C@H](O)C[C@@H]1[C@@]3(C)CC[C@H](O[C@@H]4O[C@H](CO)[C@@H](O)[C@H](O)[C@H]4O)C(C)(C)[C@@H]3CC[C@]12C [20(R)-Rh2, 20(R)-ginsenoside Rh2]
- Effect on AUC and Cmax of digoxin (P-gp [3]; 5 mg/kg i.g. prior to i.g. digoxin): significantly enhanced
- Effect on absorption of digoxin compared with control group (P-gp [3]; 50 mg/kg i.g. prior to i.g. digoxin): not changed significantly
- Cytotoxicity in osteoclasts (osteoclasts): without any cytotoxicity
- Cmax [4, 7]: ≤ 0.05 µM
- Cmax [4, 8]: 0.029 ± 0.005 µg/mL
- Tmax [4, 8]: 4.75 h
- MRT last [4, 8]: 4.65 h
- Cmax [4, 9]: 0.017 ± 0.002 µg/mL
- Tmax [4, 9]: 2.1 h
- MRT last [4, 9]: 2.38 h
- Inverted proportion (chiral inversion) [4]: ~10%
- AUC 0-t [4, 10]: 13204 ± 2322 µg·min/L
- AUC 0-t [4, 11]: 8648 ± 1871 µg·min/L
- Effect on efflux ratio of digoxin across Caco-2 cell monolayers (P-gp [5]; 1 µM, 5 µM digoxin): significantly lowered the efflux ratio of digoxin
- Effect on efflux ratio of digoxin across Caco-2 cell monolayers (P-gp [5]; elevated concentrations, 5 µM digoxin): the efflux ratio of digoxin were restored
- Osteoclastgenesis inhibition (osteoclastgenesis): selective osteoclastgenesis inhibitor

SMILES: CC(C)=CCC[C@](C)(O)[C@H]1CC[C@]2(C)[C@@H]1[C@H](O)C[C@@H]1[C@@]3(C)CC[C@H](O)C(C)(C)[C@@H]3CC[C@]12C [20(S)-Ppd, 20(S)-protopanaxadiol]
- Cmax [4, 11]: 0.085 ± 0.007 µg/mL
- Tmax [4, 11]: 8.67 h
- MRT last [4, 11]: 9.05 h
- AUC 0-t [4, 11]: 35129 ± 2261 µg·min/L
- Effect on efflux ratio of digoxin across Caco-2 cell monolayers (P-gp [5]; [12]): lowered the efflux ratio of digoxin across Caco-2 cell monolayers concentration-dependently

SMILES: CC(C)=CCC[C@](C)(O)[C@H]1CC[C@]2(C)[C@@H]1[C@H](O)C[C@@H]1[C@@]3(C)CC[C@H](O[C@@H]4O[C@H](CO)[C@@H](O)[C@H](O)[C@H]4O)C(C)(C)[C@@H]3CC[C@]12C [20(S)-Rh2, 20(S)-ginsenoside Rh2]
- P-gp inhibition (P-glycoprotein (P-gp)): effective P-gp inhibitor both in vitro and in vivo
- Cytotoxicity in osteoclasts (osteoclasts): strong cytotoxicity
- Cmax [4, 7]: ~1 µM
- Cmax [4, 8]: 0.005 ± 0.001 µg/mL
- Tmax [4, 8]: 2.33 h
- MRT last [4, 8]: 2.2 h
- Cmax [4, 9]: 0.572 ± 0.162 µg/mL
- Tmax [4, 9]: 3.45 h
- MRT last [4, 9]: 3.35 h
- Inverted proportion (chiral inversion) [4]: ~10%
- AUC 0-t [4, 10]: 1193 ± 230 µg·min/L
- AUC 0-t [4, 11]: 149888 ± 40725 µg·min/L
- AUC higher than that of 20(R)-Rh2 ([4]; same oral dosage, rats): 10 fold
- Inhibition of proliferation of prostate cancer cells [6]: inhibited the proliferation
- Effect on efflux ratio of digoxin across Caco-2 cell monolayers (P-gp [5]; [12]): decreased the efflux ratio of digoxin crossing Caco-2 cell monolayers in a concentration-dependent manner
- Osteoclastgenesis inhibition (osteoclastgenesis): weak osteoclastgenesis inhibition

SMILES: CC(C)=CCC[C@@](C)(O)[C@H]1CC[C@]2(C)[C@@H]1[C@H](O)C[C@@H]1[C@@]3(C)CC[C@H](O)C(C)(C)[C@@H]3CC[C@]12C [20(R)-Ppd, 20(R)-protopanaxadiol]
- Detection in plasma [4]: not detected
- Effect on efflux ratio of digoxin across Caco-2 cell monolayers (P-gp [5]; [12]): lowered the efflux ratio of digoxin across Caco-2 cell monolayers concentration-dependently

SMILES: CC(C)=CCC[C@@](C)(O)[C@H]1CC[C@]2(C)[C@@H]1[C@H](O)C[C@@H]1[C@@]3(C)CC[C@H](O)C(C)(C)[C@@H]3CC[C@]12C [Ppd, protopanaxadiol]
- Detection in plasma [4]: no Ppd was found

SMILES: CC(C)=CCC[C@](C)(O)[C@H]1CC[C@]2(C)[C@@H]1[C@H](O)C[C@@H]1[C@@]3(C)CC[C@H](O[C@@H]4O[C@H](CO)[C@@H](O)[C@H](O)[C@H]4O[C@@H]4O[C@H](CO)[C@@H](O)[C@H](O)[C@H]4O)C(C)(C)[C@@H]3CC[C@]12C [20(R)-ginsenoside Rg3]
- Inhibition of Ca^2+, K^+ and Na^+ channel currents [1]: not

- Cmax (P-gp [3]; Sprague-Dawley (SD), rat, plasma, po, digoxin 0.25 mg/kg i.g., control (no Rh2)): 0.0099 ± 0.0026 µM
- AUC 0-t (P-gp [3]; Sprague-Dawley (SD), rat, plasma, po, digoxin 0.25 mg/kg i.g., control (no Rh2), read-out: AUC 0–12 of digoxin): 15.4 ± 2.9 nM·h
- MRT last (P-gp [3]; Sprague-Dawley (SD), rat, plasma, po, digoxin 0.25 mg/kg i.g., control (no Rh2), read-out: MRT0–12 of digoxin): 1.7 ± 0.6 h
- half-life (P-gp [3]; Sprague-Dawley (SD), rat, plasma, po, digoxin 0.25 mg/kg i.g., control (no Rh2), read-out: t1/2 of digoxin (converted)): 1.2 ± 0.4 h
SMILES: C[C@H]1O[C@@H](O[C@H]2[C@@H](O)C[C@H](O[C@H]3[C@@H](O)C[C@H](O[C@H]4CC[C@@]5(C)[C@H](CC[C@@H]6[C@@H]5C[C@@H](O)[C@]5(C)[C@@H](C7=CC(=O)OC7)CC[C@]65O)C4)O[C@@H]3C)O[C@@H]2C)C[C@H](O)[C@@H]1O [Digoxin]
